Experimental data reported in patent US10925867B2, “Immunotherapeutic dosing regimens comprising pomalidomide and an anti-CS1 antibody for treating cancer” (Bristol-Myers Squibb Company, priority 2015, dated 2021).
Read-outs that look alike come from different tables or passages of the source.

What was measured:
[1] = tested on: OPM2 xenograft; conditions: for Median Days to Target Size / LCK / CR (complete tumor regressions) / PR (partial tumor regressions) / TGI: Study #1; for Median Days to Target Size: ELO 0.5 mg/kg IP 2QW from d16, POM 5 mg/kg PO QD × 5 d16, 23, DEX 5 mg/kg IP QD × 7 from d16, target size 1 gm; for LCK / CR (complete tumor regressions) / PR (partial tumor regressions) / TGI: ELO 0.5, POM 5, DEX 5 mg/kg; for CR (complete tumor regressions) / PR (partial tumor regressions): mice of 8; for TGI: versus untreated mice; for Max % Weight Loss: mouse, in vivo
Procedure: Mice with established OPM2 xenograft tumors were randomized into 2 groups with 8 mice per group and were administered one of the following sets of regimens: (A) Control group was left untreated (filled circles), elotuzumab (0.5 mg/kg, twice weekly IP for 7 doses starting d16, open circles), dexamethasone (5 mg/kg, daily IP for 7 doses starting on d16, open triangles), elotuzumab plus dexamethasone combination (filled triangles), pomalidomide (5 mg/kg, daily for 5 days orally starting on d16 and then again for 5 days on d23) plus dexamethasone combination (dashes); or (B) Control group was left untreated (filled circles), elotuzumab (0.5 mg/kg, twice weekly IP for 7 doses starting d16, open circles), pomalidomide (5 mg/kg, daily for 5 days orally starting on d16 and then again for 5 days on d23, open squares), elotuzumab (0.5 mg/kg, twice weekly IP for 10 doses starting d16) plus pomalidomide combination (filled squares), elotuzumab (10 doses) plus pomalidomide plus dexamethasone combination (x's). The data are presented as means+/−standard deviation.
(§1) Mice with established OPM2 xenograft tumors were randomized into groups with 8 mice per group and were administered one of the following regimens: (A): untreated (control); (B): elotuzumab; (C): pomalidomide; (D): dexamethasone; (E): elotuzumab plus pomalidomide; (F): elotuzumab plus dexamethasone; (G): pomalidomide plus dexamethasone; or (H): elotuzumab plus pomalidomide plus dexamethasone. Data represent tumor weight measured in individual animals. Dosing route and regimen are described in FIG. 2 and Example 1.
(§2) Animals: All mice were obtained from Taconic Biosciences (Germantown, N.Y.), and maintained in ammonia-free environment in a defined and pathogen-free colony. All animal procedures were approved by the Bristol-Myers Squibb (BMS) Institutional Animal Care and Use Committee. The animal care and use program at BMS has been fully accredited by the Association for Assessment and Accreditation of Laboratory Animal Care International (AAALAC).
(§3) Animal Models: The human tumor xenograft OPM2 was grown in IcrTac scid mice (ICRPrkdcscid). Treated animals were checked daily for treatment related toxicity/mortality. Each group of animals was weighed before the initiation of treatment (Wt1) and then weighed again following the last treatment dose (Wt2). The difference in body weight (Wt2-Wt1) provides a measure of treatment-related toxicity. Additional weights were recorded at each measurement date to monitor toxicity.
(§4) Tumor response was determined by measurement of tumors with a caliper twice a week, until the tumors reached a predetermined “target” size of 1 gm. Tumor weights (mg) were estimated from the formula: Tumor weight=(length×width2)/2.
(§5) Tumor response end-point was expressed in terms of tumor cell kill and tumor growth inhibition. Tumor growth delay was defined as the difference in time (days) required for the treated tumors (T) to reach a predetermined target size compared to those in the control group (C). For this purpose tumor weight of a group was expressed as […] tumor weight (MTW).
(§6) Tumor cell kill was expressed in terms of log cell kill (LCK), represented by the equation LCK=[…] where tumor volume doubling time (TVDT) was first calculated with the formula: TVDT=Median time (days) for control tumor weight to reach target size−Median time (days) for control tumor weight to reach half the target size.

[2] = tested on: OPM2 xenograft; conditions: for Median Days to Target Size / LCK / CR (complete tumor regressions) / PR (partial tumor regressions) / TGI: Study #2; for Median Days to Target Size: ELO 0.5 mg/kg IP 2QW from d12, POM 5 mg/kg PO QD × 5 d12, 19, DEX 5 mg/kg IP QD × 7 from d12, target size 1 gm; for LCK / CR (complete tumor regressions) / PR (partial tumor regressions) / TGI: ELO 0.5, POM 5, DEX 5 mg/kg; for CR (complete tumor regressions) / PR (partial tumor regressions): mice of 8; for TGI: versus untreated mice
Procedure: FIGS. 4A-B. Study #2 (OPM2-16), Antitumor Activity, Elotuzumab Efficacy in Combination with Pomalidomide and Dexamethasone in OPM2 Multiple Myeloma Xenograft. Mice with established OPM2 xenograft tumors were randomized into 2 groups with 8 mice per group and were administered one of the following sets of regimens: (A) Control group was left untreated (filled circles), elotuzumab (0.5 mg/kg, twice weekly IP for 6 doses starting d12, open circles), dexamethasone (5 mg/kg, daily IP for 7 doses starting on d12, open triangles), elotuzumab (0.5 mg/kg, twice weekly IP for 8 doses starting d12) plus dexamethasone combination (filled triangles), pomalidomide (5 mg/kg, daily for 5 days orally starting on d12 and then again for 5 days on d19) plus dexamethasone combination (dashes); or (B) Control group was left untreated (filled circles), elotuzumab (0.5 mg/kg, twice weekly IP for 6 doses starting d12, open circles), pomalidomide (5 mg/kg, daily for 5 days orally starting on d12 and then again for 5 days on d19, open squares), elotuzumab (0.5 mg/kg, twice weekly IP for 8 doses starting d12) plus pomalidomide combination (filled squares), elotuzumab (0.5 mg/kg, twice weekly IP for 8 doses starting d12) plus pomalidomide plus dexamethasone combination (x's). The data are presented as means+/−standard deviation.
as §1, with “FIGS. 5A-H. Study #2 (OPM2-16), Anti Tumor Activity of Elotuzumab, Pomalidomide, and Dexamethasone as Single Agent and Combination Treatment in OPM2 Multiple Myeloma Xenograft tumor model. Mice” for “Mice”, “FIG. 4” for “FIG. 2”
as §2, §3, §4, §5, §6

[3] = tested on: OPM2 xenograft; test: OPM2 xenograft studies taken together (summary and conclusion); type: in vivo, mice; conditions: elotuzumab 0.5 mg/kg, pomalidomide 5 mg/kg, dexamethasone 5 mg/kg
Procedure: The present invention is based on data from preclinical studies conducted in female SCID mice (6-8 weeks old) that were implanted SC (subcutaneous implantation) with the multiple myeloma cell line OPM-2 which were treated with Elotuzumab IP (intraperitoneal administration) alone, treated with pomalidomide alone, treated with dexamethasone alone, or treated in combination with each other. […] All treatments were well tolerated, with no significant changes in body weights or overt signs of clinical toxicity.
Dosing regimen for dexamethasone was QD×7.

| Compound | Median Days to Target Size [1] [days] | LCK [1] | CR (complete tumor regressions) [1] | PR (partial tumor regressions) [1] | TGI [1] [%] | Max % Weight Loss [1] [%] | Median Days to Target Size [2] [days] | LCK [2] | CR (complete tumor regressions) [2] | PR (partial tumor regressions) [2] | TGI [2] [%] | efficacy / effect on tumor growth (in words) [3] | Max % Weight Loss ([2]; mouse, in vivo) [%] |
| --- | --- | --- | --- | --- | --- | --- | --- | --- | --- | --- | --- | --- | --- |
| Elotuzumab: humanized monoclonal IgG1 antibody directed against CS-1; VL SEQ ID NO:1, VH SEQ ID NO:2 | 35.0 | 0.61 | 0/8 | 0/8 | 70.3 | −2.2 | 24.0 | 0.47 | 0/8 | 0/8 | 57.7 | inhibited tumor growth |  |
| Nc1cccc2c1C(=O)N(C1CCC(=O)NC1=O)C2=O (racemic) [Pomalidomide, (RS)-4-amino-2-(2,6-dioxo-piperidin-3-yl)-isoindole-1,3-dione] | 29.8 | 0.26 | 0/8 | 0/8 | 52 | −1.1 | 22.5 | 0.33 | 0/8 | 0/8 | 41.4 | inhibited tumor growth | −1.1 |
